In brackets after ≈: the same amount, converted by molar mass.
How the values were obtained:
Staphylococcus aureus [1] = assay: Antibacterial activity against Staphylococcus aureus ATCC 6538 after 24 hrs by microdilution method; format: functional; settings: ATCC 6538, 24 h
Bacillus cereus [2] = assay: Antibacterial activity against Bacillus cereus clinical isolate after 24 hrs by microdilution method; format: functional
Micrococcus flavus [3] = assay: Antibacterial activity against Micrococcus flavus ATCC 10240 after 24 hrs by microdilution method; format: functional; settings: ATCC 10240, 24 h
Listeria monocytogenes [4] = assay: Antibacterial activity against Listeria monocytogenes NCTC 7973 after 24 hrs by microdilution method; format: functional; settings: NCTC 7973, 24 h
Pseudomonas aeruginosa [5] = assay: Antibacterial activity against Pseudomonas aeruginosa ATCC 27853 after 24 hrs by microdilution method; format: functional; settings: ATCC 27853, 24 h
Salmonella typhimurium [6] = assay: Antibacterial activity against Salmonella Typhimurium ATCC 13311 after 24 hrs by microdilution method; format: functional, Salmonella enterica subsp. enterica serovar Typhimurium; settings: Salmonella enterica, ATCC 13311, 24 h
Escherichia coli [7] = assay: Antibacterial activity against Escherichia coli ATCC 35210 after 24 hrs by microdilution method; format: functional; settings: ATCC 35210, 24 h
Enterococcus faecalis [8] = assay: Antibacterial activity against Enterococcus faecalis isolate obtained from human after 24 hrs by microdilution method; format: functional
Staphylococcus aureus [9] = assay: Bactericidal activity against Staphylococcus aureus ATCC 6538 after 24 hrs; format: functional; settings: ATCC 6538, 24 h
Bacillus cereus [10] = assay: Bactericidal activity against Bacillus cereus clinical isolate after 24 hrs; format: functional
Micrococcus flavus [11] = assay: Bactericidal activity against Micrococcus flavus ATCC 10240 after 24 hrs; format: functional; settings: ATCC 10240, 24 h
Listeria monocytogenes [12] = assay: Bactericidal activity against Listeria monocytogenes NCTC 7973 after 24 hrs; format: functional; settings: NCTC 7973, 24 h
Pseudomonas aeruginosa [13] = assay: Bactericidal activity against Pseudomonas aeruginosa ATCC 27853 after 24 hrs; format: functional; settings: ATCC 27853, 24 h
Salmonella typhimurium [14] = assay: Bactericidal activity against Salmonella Typhimurium ATCC 13311 after 24 hrs; format: functional, Salmonella enterica subsp. enterica serovar Typhimurium; settings: Salmonella enterica, ATCC 13311, 24 h
Escherichia coli [15] = assay: Bactericidal activity against Escherichia coli ATCC 35210 after 24 hrs; format: functional; settings: ATCC 35210, 24 h
Enterococcus faecalis [16] = assay: Bactericidal activity against Enterococcus faecalis isolate obtained from human after 24 hrs; format: functional
Aspergillus ochraceus [17] = assay: Antifungal activity against Aspergillus ochraceus ATCC 12066 after 72 hrs by serial dilution method; format: functional; settings: ATCC 12066, 72 h
Aspergillus versicolor [18] = assay: Antifungal activity against Aspergillus versicolor ATCC 11730 after 72 hrs by serial dilution method; format: functional; settings: ATCC 11730, 72 h
Aspergillus niger [19] = assay: Antifungal activity against Aspergillus niger ATCC 6275 after 72 hrs by serial dilution method; format: functional; settings: ATCC 6275, 72 h
Aspergillus fumigatus [20] = assay: Antifungal activity against Aspergillus fumigatus plant isolate after 72 hrs by serial dilution method; format: functional
Trichoderma viride [21] = assay: Antifungal activity against Trichoderma viride IAM 5061 after 72 hrs by serial dilution method; format: functional; settings: IAM 5061, 72 h
Penicillium ochrochloron [22] = assay: Antifungal activity against Penicillium ochrochloron ATCC 9112 after 72 hrs by serial dilution method; format: functional; settings: ATCC 9112, 72 h
Talaromyces funiculosus [23] = assay: Antifungal activity against Penicillium funiculosum ATCC 36839 after 72 hrs by serial dilution method; format: functional; settings: ATCC 36839, 72 h
[24] = Antifungal activity against Fusarium sporotrichioides IMT 496 after 72 hrs by serial dilution method; format: functional
Aspergillus ochraceus [25] = assay: Fungicidal activity against Aspergillus ochraceus ATCC 12066 after 72 hrs; format: functional; settings: ATCC 12066, 72 h
Aspergillus versicolor [26] = assay: Fungicidal activity against Aspergillus versicolor ATCC 11730 after 72 hrs; format: functional; settings: ATCC 11730, 72 h
Aspergillus niger [27] = assay: Fungicidal activity against Aspergillus niger ATCC 6275 after 72 hrs; format: functional; settings: ATCC 6275, 72 h
Aspergillus fumigatus [28] = assay: Fungicidal activity against Aspergillus fumigatus plant isolate after 72 hrs; format: functional
Trichoderma viride [29] = assay: Fungicidal activity against Trichoderma viride IAM 5061 after 72 hrs; format: functional; settings: IAM 5061, 72 h
Penicillium ochrochloron [30] = assay: Fungicidal activity against Penicillium ochrochloron ATCC 9112 after 72 hrs; format: functional; settings: ATCC 9112, 72 h
Talaromyces funiculosus [31] = assay: Fungicidal activity against Penicillium funiculosum ATCC 36839 after 72 hrs; format: functional; settings: ATCC 36839, 72 h
[32] = tested on: Fusarium sporotrichioides; assay: Fungicidal activity against Fusarium sporotrichioides IMT 496 after 72 hrs; format: functional; settings: IMT 496, 72 h

CNc1nc(C)c(C(=O)/C=C/c2cccc([N+](=O)[O-])c2)s1
MIC (Staphylococcus aureus [1]): 330 µM (≈ 100 µg/mL)
MIC (Bacillus cereus [2]): 330 µM (≈ 100 µg/mL)
MIC (Micrococcus flavus [3]): 330 µM (≈ 100 µg/mL)
MIC (Listeria monocytogenes [4]): 330 µM (≈ 100 µg/mL)
MIC (Pseudomonas aeruginosa [5]): 280 µM (≈ 85.1 µg/mL)
MIC (Salmonella typhimurium [6]): 280 µM (≈ 85.1 µg/mL)
MIC (Escherichia coli [7]): 248 µM (≈ 75.1 µg/mL)
MIC (Enterococcus faecalis [8]): 330 µM (≈ 100 µg/mL)
MBC (Staphylococcus aureus [9]): 495 µM (≈ 150 µg/mL)
MBC (Bacillus cereus [10]): 330 µM (≈ 100 µg/mL)
MBC (Micrococcus flavus [11]): 495 µM (≈ 150 µg/mL)
MBC (Listeria monocytogenes [12]): 495 µM (≈ 150 µg/mL)
MBC (Pseudomonas aeruginosa [13]): 330 µM (≈ 100 µg/mL)
MBC (Salmonella typhimurium [14]): 330 µM (≈ 100 µg/mL)
MBC (Escherichia coli [15]): 330 µM (≈ 100 µg/mL)
MBC (Enterococcus faecalis [16]): 330 µM (≈ 100 µg/mL)
MIC (Aspergillus ochraceus [17]): 330 µM (≈ 100 µg/mL)
MIC (Aspergillus versicolor [18]): 330 µM (≈ 100 µg/mL)
MIC (Aspergillus niger [19]): 330 µM (≈ 100 µg/mL)
MIC (Aspergillus fumigatus [20]): 330 µM (≈ 100 µg/mL)
MIC (Trichoderma viride [21]): 165 µM (≈ 50.1 µg/mL)
MIC (Penicillium ochrochloron [22]): 330 µM (≈ 100 µg/mL)
MIC (Talaromyces funiculosus [23]): 330 µM (≈ 100 µg/mL)
MIC (10'-2 umol/ml) [24]: 33
MFC (Aspergillus ochraceus [25]): 496 µM (≈ 150 µg/mL)
MFC (Aspergillus versicolor [26]): 496 µM (≈ 150 µg/mL)
MFC (Aspergillus niger [27]): 660 µM (≈ 200 µg/mL)
MFC (Aspergillus fumigatus [28]): 496 µM (≈ 150 µg/mL)
MFC (Trichoderma viride [29]): 330 µM (≈ 100 µg/mL)
MFC (Penicillium ochrochloron [30]): 496 µM (≈ 150 µg/mL)
MFC (Talaromyces funiculosus [31]): 496 µM (≈ 150 µg/mL)
MFC [32]: 660 µM (≈ 200 µg/mL)

CNc1nc(C)c(C(=O)/C=C/c2c(Cl)cccc2Cl)s1
MIC (Staphylococcus aureus [1]): 306 µM (≈ 100 µg/mL)
MIC (Bacillus cereus [2]): 260 µM (≈ 85 µg/mL)
MIC (Micrococcus flavus [3]): 229 µM (≈ 75 µg/mL)
MIC (Listeria monocytogenes [4]): 306 µM (≈ 100 µg/mL)
MIC (Pseudomonas aeruginosa [5]): 229 µM (≈ 75 µg/mL)
MIC (Salmonella typhimurium [6]): 306 µM (≈ 100 µg/mL)
MIC (Escherichia coli [7]): 229 µM (≈ 75 µg/mL)
MIC (Enterococcus faecalis [8]): 153 µM (≈ 50 µg/mL)
MBC (Staphylococcus aureus [9]): 459 µM (≈ 150 µg/mL)
MBC (Bacillus cereus [10]): 306 µM (≈ 100 µg/mL)
MBC (Micrococcus flavus [11]): 306 µM (≈ 100 µg/mL)
MBC (Listeria monocytogenes [12]): 459 µM (≈ 150 µg/mL)
MBC (Pseudomonas aeruginosa [13]): 306 µM (≈ 100 µg/mL)
MBC (Salmonella typhimurium [14]): 306 µM (≈ 100 µg/mL)
MBC (Escherichia coli [15]): 306 µM (≈ 100 µg/mL)
MBC (Enterococcus faecalis [16]): 306 µM (≈ 100 µg/mL)
MIC (Aspergillus ochraceus [17]): 459 µM (≈ 150 µg/mL)
MIC (Aspergillus versicolor [18]): 306 µM (≈ 100 µg/mL)
MIC (Aspergillus niger [19]): 306 µM (≈ 100 µg/mL)
MIC (Aspergillus fumigatus [20]): 306 µM (≈ 100 µg/mL)
MIC (Trichoderma viride [21]): 153 µM (≈ 50 µg/mL)
MIC (Penicillium ochrochloron [22]): 153 µM (≈ 50 µg/mL)
MIC (Talaromyces funiculosus [23]): 306 µM (≈ 100 µg/mL)
MIC (10'-2 umol/ml) [24]: 15.3
MFC (Aspergillus ochraceus [25]): 612 µM (≈ 200 µg/mL)
MFC (Aspergillus versicolor [26]): 459 µM (≈ 150 µg/mL)
MFC (Aspergillus niger [27]): 612 µM (≈ 200 µg/mL)
MFC (Aspergillus fumigatus [28]): 306 µM (≈ 100 µg/mL)
MFC (Trichoderma viride [29]): 306 µM (≈ 100 µg/mL)
MFC (Penicillium ochrochloron [30]): 459 µM (≈ 150 µg/mL)
MFC (Talaromyces funiculosus [31]): 459 µM (≈ 150 µg/mL)
MFC [32]: 459 µM (≈ 150 µg/mL)

CNc1nc(C)c(C(=O)/C=C/c2ccccc2)s1
MIC (Staphylococcus aureus [1]): 388 µM (≈ 100 µg/mL)
MIC (Bacillus cereus [2]): 388 µM (≈ 100 µg/mL)
MIC (Micrococcus flavus [3]): 194 µM (≈ 50 µg/mL)
MIC (Listeria monocytogenes [4]): 388 µM (≈ 100 µg/mL)
MIC (Pseudomonas aeruginosa [5]): 291 µM (≈ 75.1 µg/mL)
MIC (Salmonella typhimurium [6]): 329 µM (≈ 85.1 µg/mL)
MIC (Escherichia coli [7]): 329 µM (≈ 85.1 µg/mL)
MIC (Enterococcus faecalis [8]): 194 µM (≈ 50 µg/mL)
MBC (Staphylococcus aureus [9]): 581 µM (≈ 150 µg/mL)
MBC (Bacillus cereus [10]): 581 µM (≈ 150 µg/mL)
MBC (Micrococcus flavus [11]): 388 µM (≈ 100 µg/mL)
MBC (Listeria monocytogenes [12]): 581 µM (≈ 150 µg/mL)
MBC (Pseudomonas aeruginosa [13]): 388 µM (≈ 100 µg/mL)
MBC (Salmonella typhimurium [14]): 388 µM (≈ 100 µg/mL)
MBC (Escherichia coli [15]): 388 µM (≈ 100 µg/mL)
MBC (Enterococcus faecalis [16]): 388 µM (≈ 100 µg/mL)
MIC (Aspergillus ochraceus [17]): 388 µM (≈ 100 µg/mL)
MIC (Aspergillus versicolor [18]): 194 µM (≈ 50.1 µg/mL)
MIC (Aspergillus niger [19]): 388 µM (≈ 100 µg/mL)
MIC (Aspergillus fumigatus [20]): 388 µM (≈ 100 µg/mL)
MIC (Trichoderma viride [21]): 194 µM (≈ 50.1 µg/mL)
MIC (Penicillium ochrochloron [22]): 194 µM (≈ 50.1 µg/mL)
MIC (Talaromyces funiculosus [23]): 388 µM (≈ 100 µg/mL)
MIC (10'-2 umol/ml) [24]: 38.8
MFC (Aspergillus ochraceus [25]): 581 µM (≈ 150 µg/mL)
MFC (Aspergillus versicolor [26]): 581 µM (≈ 150 µg/mL)
MFC (Aspergillus niger [27]): 775 µM (≈ 200 µg/mL)
MFC (Aspergillus fumigatus [28]): 581 µM (≈ 150 µg/mL)
MFC (Trichoderma viride [29]): 388 µM (≈ 100 µg/mL)
MFC (Penicillium ochrochloron [30]): 775 µM (≈ 200 µg/mL)
MFC (Talaromyces funiculosus [31]): 581 µM (≈ 150 µg/mL)
MFC [32]: 388 µM (≈ 100 µg/mL)

CC(=O)N1CCN(c2ccc(OCC3COC(Cn4ccnc4)(c4ccc(Cl)cc4Cl)O3)cc2)CC1 (configuration not stated) [KETOCONAZOLE]
MIC (Aspergillus ochraceus [17]): 47 µM (≈ 25 µg/mL)
MIC (Aspergillus versicolor [18]): 18.8 µM (≈ 9.99 µg/mL)
MIC (Aspergillus niger [19]): 282 µM (≈ 150 µg/mL)
MIC (Aspergillus fumigatus [20]): 47 µM (≈ 25 µg/mL)
MIC (Trichoderma viride [21]): 94.2 µM (≈ 50.1 µg/mL)
MIC (Penicillium ochrochloron [22]): 18.8 µM (≈ 9.99 µg/mL)
MIC (Talaromyces funiculosus [23]): 9.4 µM (≈ 5 µg/mL)
MIC (10'-2 umol/ml) [24]: 9.42
MFC (Aspergillus ochraceus [25]): 94.2 µM (≈ 50.1 µg/mL)
MFC (Aspergillus versicolor [26]): 47 µM (≈ 25 µg/mL)
MFC (Aspergillus niger [27]): 470 µM (≈ 250 µg/mL)
MFC (Aspergillus fumigatus [28]): 94.2 µM (≈ 50.1 µg/mL)
MFC (Trichoderma viride [29]): 188 µM (≈ 99.9 µg/mL)
MFC (Penicillium ochrochloron [30]): 47 µM (≈ 25 µg/mL)
MFC (Talaromyces funiculosus [31]): 18.8 µM (≈ 9.99 µg/mL)
MFC [32]: 188 µM (≈ 99.9 µg/mL)

From ChEMBL document CHEMBL1782000, “Thiazole-based chalcones as potent antimicrobial agents. Synthesis and biological evaluation” (2011)
